biological target: T1, KRAS G12C (Homo sapiens, UniProt P01116, G12C); test: Inhibitory activity on the KRAS G12C nucleotide (GDP-GTP) exchange reaction; format: biochemical; conditions: Bodipy FL GDP-bound KRAS G12C 25 nM; preincubation at 25° C. for 4 hours; SOS1 100 nM, GppNHp 1 μM, reaction for 30 minutes
T1 construct: KRAS G12C (amino acid region: 1-169)
Method in brief: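 Bodipy FL-GDP-loaded KRAS G12C (aa 1-169, 25 nM) preincubated with compound 4 h at 25 °C in pH 7.5 Tris buffer, 5% DMSO; exchange started with SOS1 (aa 564-1049, 100 nM) and 1 μM GppNHp for 30 min. Fluorescence change (ex 485/em 520 nm) normalized to DMSO and no-GppNHp controls; IC50 calculated.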

T1 sequence (P01116 1-169 isoform P01116-2 G12C): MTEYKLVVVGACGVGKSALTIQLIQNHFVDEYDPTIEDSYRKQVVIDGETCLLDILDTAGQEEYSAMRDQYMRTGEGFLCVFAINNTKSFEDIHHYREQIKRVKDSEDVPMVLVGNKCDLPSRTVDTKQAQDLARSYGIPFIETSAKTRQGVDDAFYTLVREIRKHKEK

SMILES | IC50 [nM]
C=CC(=O)N1C[C@H](NC(=O)c2c(C)nc(CNc3n[nH]c4cc(Cl)c(C(C)(C)C)cc34)n2C)[C@H](OC)C1 [Example 61, N-((3S,4R)-1-acryloyl-4-methoxypyrrolidin-3-yl)-2-(((5-(tert-butyl)-6-chloro-1H-indazol-3-yl)amino)methyl)-1,4-dimethyl-1H-imidazole-5-carboxamide] | 210
COC/C=C/C(=O)N1CC(NC(=O)c2c(C)nc(CNc3n[nH]c4cc(Cl)c(C(C)(C)C)cc34)n2C(C)C)C1 [Example 85, (E)-2-(((5-(tert-butyl)-6-chloro-1H-indazol-3-yl)amino)methyl)-1-isopropyl-N-(1-(4-methoxybut-2-enoyl)azetidin-3-yl)-4-methyl-1H-imidazole-5-carboxamide] | 196
C=CC(=O)N1C[C@@H](CN(C)C)[C@@H](NC(=O)c2c(C)nc(CNc3n[nH]c4cc(Cl)c(C(C)(C)C)cc34)n2C)C1 [Example 68, N-((3R,4R)-1-acryloyl-4-((dimethylamino)methyl)pyrrolidin-3-yl)-2-(((5-(tert-butyl)-6-chloro-1H-indazol-3-yl)amino)methyl)-1,4-dimethyl-1H-imidazole-5-carboxamide] | 99
C=CC(=O)N1C[C@H](NC(=O)c2c(C(F)F)nc(CNc3n[nH]c4cc(Cl)c(C(C)(C)C)cc34)n2C)[C@@H](F)C1 [Example 70, N-((3S,4S)-1-acryloyl-4-fluoropyrrolidin-3-yl)-2-(((5-(tert-butyl)-6-chloro-1H-indazol-3-yl)amino)methyl)-4-(difluoromethyl)-1-methyl-1H-imidazole-5-carboxamide] | 79
C=CC(=O)N1CC(NC(=O)c2c(CC)nc(CNc3n[nH]c4cc(Cl)c(C(C)(C)C)cc34)n2C)C1 [Example 31, N-(1-acryloylazetidin-3-yl)-2-(((5-(tert-butyl)-6-chloro-1H-indazol-3-yl)amino)methyl)-4-ethyl-1-methyl-1H-imidazole-5-carboxamide] | 642
C=CC(=O)N1CC[C@@H](NC(=O)c2c(F)nc(CNc3n[nH]c4cc(Cl)c(C(C)(C)C)cc34)n2C)C1 [Example 72, (R)-N-(1-acryloylpyrrolidin-3-yl)-2-(((5-(tert-butyl)-6-chloro-1H-indazol-3-yl)amino)methyl)-4-fluoro-1-methyl-1H-imidazole-5-carboxamide] | 71
C=CC(=O)N1CC(NC(=O)c2cnc(CNc3n[nH]c4cc(Cl)c(C)cc34)n2C)C1 [Example 37, N-(1-acryloylazetidin-3-yl)-2-(((6-chloro-5-methyl-1H-indazol-3-yl)amino)methyl)-1-methyl-1H-imidazole-5-carboxamide] | 5480
C=CC(=O)N1CC(NC(=O)c2sc(CNc3n[nH]c4cc(Cl)c(C(C)(C)C)cc34)nc2C)C1 [Example 2, N-(1-acryloylazetidin-3-yl)-2-(((5-(tert-butyl)-6-chloro-1H-indazol-3-yl)amino)methyl)-4-methylthiazole-5-carboxamide] | 365
C=CC(=O)N1CC(NC(=O)c2cc(CNc3n[nH]c4cc(Cl)c(C(C)(C)C)cc34)nn2C)C1 [Example 9, N-(1-acryloylazetidin-3-yl)-3-(((5-(tert-butyl)-6-chloro-1H-indazol-3-yl)amino)methyl)-1-methyl-1H-pyrazole-5-carboxamide] | 3140
C=CC(=O)N1CC(NC(=O)c2cnc(C(C)Nc3n[nH]c4cc(Cl)c(C(C)(C)C)cc34)n2C)C1 (centres unmarked) [Example 4, N-(1-acryloylazetidin-3-yl)-2-(1-((5-(tert-butyl)-6-chloro-1H-indazol-3-yl)amino)ethyl)-1-methyl-1H-imidazole-5-carboxamide] | 1560
C=CC(=O)NC1CN(C(=O)c2c(C)nc(CNc3n[nH]c4cc(Cl)c(C(C)(C)C)cc34)n2C)C1 [Example 46, N-(1-(2-(((5-(tert-butyl)-6-chloro-1H-indazol-3-yl)amino)methyl)-1,4-dimethyl-1H-imidazole-5-carbonyl)azetidin-3-yl) acrylamide] | 92
C=CC(=O)N1C[C@@H](O)[C@@H](NC(=O)c2c(C)nc(CNc3n[nH]c4cc(Cl)c(C(C)(C)C)cc34)n2C)C1 [Example 56, N-((3S,4R)-1-acryloyl-4-hydroxypyrrolidin-3-yl)-2-(((5-(tert-butyl)-6-chloro-1H-indazol-3-yl)amino)methyl)-1,4-dimethyl-1H-imidazole-5-carboxamide] | 198

The next lines start with the values.

IC50 [nM] | SMILES
68 | C=CC(=O)N1CC(NC(=O)c2c(C)nc(CNc3n[nH]c4ccc(C(C)(C)C)cc34)n2C(C)C)C1 [Example 42, N-(1-acryloylazetidin-3-yl)-2-(((5-(tert-butyl)-1H-indazol-3-yl)amino)methyl)-1-isopropyl-4-methyl-1H-imidazole-5-carboxamide]
16 | C=CC(=O)N1CC(NC(=O)c2cnc(CNc3n[nH]c4cc(Cl)c(C(C)(C)C)cc34)n2C)C1 [Example 1, N-(1-acryloylazetidin-3-yl)-2-(((5-(tert-butyl)-6-chloro-1H-indazol-3-yl)amino)methyl)-1-methyl-1H-imidazole-5-carboxamide]
6 | C=CC(=O)N1CC(NC(=O)c2c(Cl)nc(CNc3n[nH]c4cc(Cl)c(C(C)(C)C)cc34)n2[C@@H]2CCN(c3ccccn3)C2)C1 [Example 124, (R)-N-(1-acryloylazetidin-3-yl)-2-(((5-(tert-butyl)-6-chloro-1H-indazol-3-yl)amino)methyl)-4-chloro-1-(1-(pyridin-2-yl)pyrrolidin-3-yl)-1H-imidazole-5-carboxamide]
42 | C=CC(=O)N(C)C1CN(C(=O)c2c(C)nc(CNc3n[nH]c4cc(Cl)c(C(C)(C)C)cc34)n2C)C1 [Example 51, N-(1-(2-(((5-(tert-butyl)-6-chloro-1H-indazol-3-yl)amino)methyl)-1,4-dimethyl-1H-imidazole-5-carbonyl)azetidin-3-yl)-N-methylacrylamide]
28 | C=CC(=O)N1C[C@@H](CO)[C@@H](NC(=O)c2c(C)nc(CNc3n[nH]c4cc(Cl)c(C(C)(C)C)cc34)n2C)C1 [Example 58, N-((3R,4R)-1-acryloyl-4-(hydroxymethyl)pyrrolidin-3-yl)-2-(((5-(tert-butyl)-6-chloro-1H-indazol-3-yl)amino)methyl)-1,4-dimethyl-1H-imidazole-5-carboxamide]
16 | C=CC(=O)N1CC(NC(=O)c2c(C)nc(CNc3n[nH]c4cc(Cl)c(C(C)(C)C)cc34)n2CC)C1 [Example 12, N-(1-acryloylazetidin-3-yl)-2-(((5-(tert-butyl)-6-chloro-1H-indazol-3-yl)amino)methyl)-1-ethyl-4-methyl-1H-imidazole-5-carboxamide]
11 | C=CC(=O)N1CC(NC(=O)c2c(F)nc(CNc3n[nH]c4cc(Cl)c(C(C)(C)C)cc34)n2C)C1 [Example 30, N-(1-acryloylazetidin-3-yl)-2-(((5-(tert-butyl)-6-chloro-1H-indazol-3-yl)amino)methyl)-4-fluoro-1-methyl-1H-imidazole-5-carboxamide]
13 | C=CC(=O)N1C[C@H](NC(=O)c2c(C)nc(CNc3n[nH]c4cc(Cl)c(C(C)(C)C)cc34)n2C)[C@@H](F)C1 [Example 64, N-((3S,4S)-1-acryloyl-4-fluoropyrrolidin-3-yl)-2-(((5-(tert-butyl)-6-chloro-1H-indazol-3-yl)amino)methyl)-1,4-dimethyl-1H-imidazole-5-carboxamide]
5 | C=CC(=O)N1CC(NC(=O)c2c(Cl)nc(CNc3n[nH]c4cc(Cl)c(C(C)(C)C)cc34)n2C2CCN(C)CC2)C1 [Example 103, N-(1-acryloylazetidin-3-yl)-2-(((5-(tert-butyl)-6-chloro-1H-indazol-3-yl)amino)methyl)-4-chloro-1-(1-methylpiperidin-4-yl)-1H-imidazole-5-carboxamide]
4 | C=CC(=O)N1CC(NC(=O)c2c(Cl)nc(CNc3n[nH]c4cc(Cl)c(C(C)(C)C)cc34)n2[C@@H]2C[C@@H](C)N(CC(F)F)C2)C1 [Example 126, N-(1-acryloylazetidin-3-yl)-2-(((5-(tert-butyl)-6-chloro-1H-indazol-3-yl)amino)methyl)-4-chloro-1-((3R,5R)-1-(2,2-difluoroethyl)-5-methylpyrrolidin-3-yl)-1H-imidazole-5-carboxamide]
58 | C=CS(=O)(=O)N1CC(NC(=O)c2c(C)nc(CNc3n[nH]c4cc(Cl)c(C(C)(C)C)cc34)n2C(C)C)C1 [Example 86, 2-(((5-(tert-butyl)-6-chloro-1H-indazol-3-yl)amino)methyl)-1-isopropyl-4-methyl-N-(1-(vinylsulfonyl)azetidin-3-yl)-1H-imidazole-5-carboxamide]
14 | C=CC(=O)N1CC(NC(=O)c2c(Cl)nc(CNc3n[nH]c4cc(Cl)c(C(C)(C)C)cc34)n2CCCC)C1 [Example 87, N-(1-acryloylazetidin-3-yl)-1-butyl-2-(((5-(tert-butyl)-6-chloro-1H-indazol-3-yl)amino)methyl)-4-chloro-1H-imidazole-5-carboxamide]
70 | C=CC(=O)N1CC(NC(=O)c2c(C#N)nc(CNc3n[nH]c4cc(Cl)c(C(C)(C)C)cc34)n2C)C1 [Example 28, N-(1-acryloylazetidin-3-yl)-2-(((5-(tert-butyl)-6-chloro-1H-indazol-3-yl)amino)methyl)-4-cyano-1-methyl-1H-imidazole-5-carboxamide]
6 | C=CC(=O)N1CC(NC(=O)c2c(Cl)nc(CNc3n[nH]c4cc(Cl)c(C(C)(C)C)cc34)n2CCOC)C1 [Example 90, N-(1-acryloylazetidin-3-yl)-2-(((5-(tert-butyl)-6-chloro-1H-indazol-3-yl)amino)methyl)-4-chloro-1-(2-methoxyethyl)-1H-imidazole-5-carboxamide]

Source: patent US20230181536A1, “ANTICANCER COMBINATION THERAPY WITH N-(1-ACRYLOYL-AZETIDIN-3-YL)-2-((1H-INDAZOL-3-YL)AMINO)METHYL)-1H-IMIDAZOLE-5-CARBOXAMIDE INHIBITOR OF KRAS-G12C” (TAIHO PHARMACEUTICAL CO., LTD., priority 2020, published 2023)
